PMC7695835, “Pharmacological characterisation of novel adenosine A3 receptor antagonists” (Scientific Reports, 2020)
Substitutions are numbered along the chain they refer to. Read-outs that look alike come from different tables or passages of the source.

Experiments:
[1] = Half-life in PBS (pH 7.4); details: PBS pH 7.4, 1 μM compound
in vitro = details: human, plasma
physchem = details: PBS, pH 7.4
A2AR [2] = target: T1, A2AR (Homo sapiens, UniProt P29274); parameters: method as in Lagarias et al.[19]; details: 10 nM [3H]NECA; ref Lagarias et al.[19]; read-out: Radioligand binding Ki A2AR; cited from earlier work
T1 construct: expressed in transfected cells; host or cells: CHO cells, membrane preparation

Human plasma stability = details: 1 μM compound
A1R [3] = target: T2, A1R (Homo sapiens, UniProt P30542); parameters: method as in Lagarias et al.[19]; details: 1 nM [3H]CCPA; ref Lagarias et al.[19]; read-out: Radioligand binding Ki A1R; cited from earlier work
T2 construct: expressed in transfected cells
T2 sequence (P30542 1-326): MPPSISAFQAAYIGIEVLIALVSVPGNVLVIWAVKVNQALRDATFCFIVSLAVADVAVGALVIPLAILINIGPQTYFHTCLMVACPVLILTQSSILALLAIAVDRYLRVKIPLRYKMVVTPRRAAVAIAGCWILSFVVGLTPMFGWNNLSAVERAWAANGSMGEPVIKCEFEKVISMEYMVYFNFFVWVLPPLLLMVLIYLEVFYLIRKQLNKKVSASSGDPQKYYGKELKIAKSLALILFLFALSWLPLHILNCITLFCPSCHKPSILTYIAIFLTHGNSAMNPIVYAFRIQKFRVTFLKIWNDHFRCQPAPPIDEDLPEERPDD

A2AR [4] = target: T1, A2AR; assay: Radioligand binding at A2AR ([3H]NECA, CHO cell membranes); details: 10 nM [3H]NECA; three independent experiments
Description: (§1) All pharmacological methods followed the procedures as described in the literature. In brief, membranes for radioligand binding were prepared from CHO cells stably transfected with hAR subtypes in a two-step procedure. In the first step, cell fragments and nuclei were removed at 1000×g and then the crude membrane fraction was sedimented from the supernatant at 100,000×g. The membrane pellet was resuspended in the buffer used for the respective binding experiments and it was frozen in liquid nitrogen and stored at – 80 °C. […] Ki values from competition experiments were calculated using Prism (GraphPad Software, La Jolla, CA, USA) assuming competitive interaction with a single binding site.

A1R [5] = target: T2, A1R; assay: Radioligand binding at A1R ([3H]CCPA, CHO cell membranes); details: 1 nM [3H]CCPA; three independent experiments
Description: as §1

rat A3R = target: T3, rat A3R (Rattus norvegicus, UniProt P28647); assay: NanoBRET ligand-binding, Nluc-rat A3R HEK 293 cells, AV039 tracer
T3 sequence (P28647 1-320): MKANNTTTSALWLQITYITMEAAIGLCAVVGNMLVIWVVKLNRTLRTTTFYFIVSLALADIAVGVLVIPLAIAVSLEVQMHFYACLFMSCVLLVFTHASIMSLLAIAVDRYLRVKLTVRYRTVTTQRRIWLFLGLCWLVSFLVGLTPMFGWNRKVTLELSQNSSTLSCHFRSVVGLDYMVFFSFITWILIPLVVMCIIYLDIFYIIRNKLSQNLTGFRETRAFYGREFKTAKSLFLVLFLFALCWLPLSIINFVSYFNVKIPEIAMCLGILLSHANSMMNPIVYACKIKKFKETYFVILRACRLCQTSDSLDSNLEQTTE

A3R [6] = target: T4, A3R (Homo sapiens, UniProt P0DMS8); details: for cAMP accumulation Mean difference between 'NECA' and compound: 10 μM forskolin + NECA IC80 + 1 μM compound
T4 sequence (P0DMS8 1-318): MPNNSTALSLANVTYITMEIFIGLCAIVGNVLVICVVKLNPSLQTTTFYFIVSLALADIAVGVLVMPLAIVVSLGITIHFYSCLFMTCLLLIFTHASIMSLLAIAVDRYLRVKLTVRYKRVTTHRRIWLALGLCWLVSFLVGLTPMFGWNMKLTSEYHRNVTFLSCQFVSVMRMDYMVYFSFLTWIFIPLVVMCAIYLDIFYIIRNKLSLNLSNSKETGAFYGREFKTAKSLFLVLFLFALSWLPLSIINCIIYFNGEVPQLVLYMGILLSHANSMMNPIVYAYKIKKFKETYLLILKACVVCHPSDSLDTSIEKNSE

A3R [7] = target: T4, A3R; assay: Radioligand binding at A3R ([3H]HEMADO, CHO cell membranes); details: 1 nM [3H]HEMADO; three independent experiments
A3R [8] = target: T4, A3R; assay: HEMADO induced cAMP inhibition at the A3R; type: cell-based; details: HEMADO only
L264A A3R = target: T5, L264A A3R (Homo sapiens, UniProt P0DMS8, L264A); details: + DMSO
T5 sequence (P0DMS8 1-318 L264A): T4 sequence (P0DMS8 1-318) with L264A

WT A3R [9] = target: T6, WT A3R (Homo sapiens, UniProt P0DMS8); details: + DMSO
T6 sequence (P0DMS8 1-318): T4 sequence (P0DMS8 1-318)

V169A A3R = target: T7, V169A A3R (Homo sapiens, UniProt P0DMS8, V169A); details: + DMSO
T7 sequence (P0DMS8 1-318 V169A): T4 sequence (P0DMS8 1-318) with V169A

M177A A3R = target: T8, M177A A3R (Homo sapiens, UniProt P0DMS8, M177A); details: + DMSO
T8 sequence (P0DMS8 1-318 M177A): T4 sequence (P0DMS8 1-318) with M177A

I249A A3R = target: T9, I249A A3R (Homo sapiens, UniProt P0DMS8, I249A); details: + DMSO
T9 sequence (P0DMS8 1-318 I249A): T4 sequence (P0DMS8 1-318) with I249A

L90A A3R = target: T10, L90A A3R (Homo sapiens, UniProt P0DMS8, L90A); details: + DMSO
T10 sequence (P0DMS8 1-318 L90A): T4 sequence (P0DMS8 1-318) with L90A

WT A3R [10] = target: T6, WT A3R; assay: IB-MECA stimulated cAMP inhibition at WT A3R Flp-In-CHO, with Schild analysis; type: cell-based; details: IB-MECA only; difference between Emin and basal
A1R [11] = target: T2, A1R; assay: NECA stimulated cAMP inhibition in CHO-K1 cells expressing A1R; type: cell-based; details: NECA only
A3R [12] = target: T4, A3R; assay: NECA stimulated cAMP inhibition in A3R Flp-In CHO cells; type: cell-based; details: NECA only; lower plateau
[13] = 10 μM forskolin + NECA IC80 (3.16 nM) + 1 μM compound, mean ± SEM, n = 3

T1 sequence (P29274 whole entry): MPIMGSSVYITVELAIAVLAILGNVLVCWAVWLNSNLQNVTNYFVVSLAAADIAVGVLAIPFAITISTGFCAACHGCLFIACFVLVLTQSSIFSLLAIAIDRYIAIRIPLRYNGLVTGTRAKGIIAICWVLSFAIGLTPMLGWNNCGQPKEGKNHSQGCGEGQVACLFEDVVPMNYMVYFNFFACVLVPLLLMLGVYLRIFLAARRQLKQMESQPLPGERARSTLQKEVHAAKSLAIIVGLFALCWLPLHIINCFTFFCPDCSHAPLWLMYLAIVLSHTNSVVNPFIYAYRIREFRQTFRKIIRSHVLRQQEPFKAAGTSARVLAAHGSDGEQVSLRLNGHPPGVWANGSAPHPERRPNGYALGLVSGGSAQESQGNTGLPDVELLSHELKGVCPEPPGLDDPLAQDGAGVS

Cc1nc(C(=N)NOC(=O)c2c(-c3c(Cl)cccc3Cl)noc2C)cs1 [Compound K18, O4-{[3-(2,6-dichlorophenyl)-5-methylisoxazol-4-yl]carbonyl}-2-methyl-1,3-thiazole-4-carbohydroximamide]
percentage remaining at 240 min [1]: 87%
half-life at 1 μM (in vitro): > 2 h
half-life at 1 μM (physchem): > 4 h
Ki (A2AR [2]): > 100 µM
percentage remaining after 120 min (Human plasma stability): 90%
Ki (A1R [3]): > 100 µM

Cc1onc(-c2ccccc2Cl)c1C(=O)O/N=C(\N)c1ccccn1 [Compound K32]
Ki (A2AR [4]): > 100 µM
Ki (A1R [5]): > 100 µM
binding at rat A3R (rat A3R; no binding detected below the concentration of 10 μM): very weak binding
pKi (rat A3R; rat A3R, 100 nM AV039, BRET ratio at 5 minutes, Cheng-Prusoff): 4.05 ± 0.10

N/C(=N\OC(=O)c1ccccc1-c1ccccc1)c1cccnc1 [Compound K33]
Ki (A2AR [4]): > 100 µM
cAMP accumulation Mean (A3R [6]; [13]): 71.97 ±4.74 %10 μM forskolin response
cAMP accumulation Mean difference between 'NECA' and compound (A3R [6]): -11.65 %10 μM forskolin response
Ki (A1R [5]): > 100 µM
Ki (A3R [7]): > 30 µM

N/C(=N\OC(=O)c1ccc(-c2ccccc2)cc1)c1ccc(Br)cc1 [Compound K36]
Ki (A2AR [4]): > 100 µM
cAMP accumulation Mean (A3R [6]; [13]): 61.96 ±1.51 %10 μM forskolin response
cAMP accumulation Mean difference between 'NECA' and compound (A3R [6]): -1.64 %10 μM forskolin response
Ki (A1R [5]): > 100 µM
Ki (A3R [7]): > 100 µM

CCCCC#Cc1nc(NC)c2ncn([C@@H]3O[C@H](CO)[C@@H](O)[C@H]3O)c2n1 [HEMADO, (2R,3R,4S,5R)-2-(2-hex-1-ynyl-6-methylaminopurin-9-yl)-5-(hydroxymethyl)oxolane-3,4-diol]
Span (A3R [8]): 107.3 ±4.7
IC50 (A3R [8]; 10 µM forskolin, n = 3, read-out: pIC50 of HEMADO (converted)): 28.8 pM
Emin (A3R [8]; lower plateau): -3.48 ±2.7 % 10 µM forskolin response
Basal (A3R [8]; upper plateau): 103.8 ±4.1

CNC(=O)[C@H]1O[C@@H](n2cnc3c(NCc4cccc(I)c4)ncnc32)[C@H](O)[C@@H]1O [IB-MECA, (2S,3S,4R,5R)-3,4-dihydroxy-5-[6-[(3-iodophenyl)methylamino]purin-9-yl]-N-methyloxolane-2-carboxamide]
Basal (L264A A3R): 72.0 ± 2.3 %100 μM forskolin
Emin (L264A A3R): 41.1 ± 2.2 %100 μM forskolin
Span (L264A A3R): 30.9 ± 2.2
Basal (WT A3R [9]): 60.1 ± 0.9 %100 μM forskolin
Emin (WT A3R [9]): 35.0 ± 1.6 %100 μM forskolin
Span (WT A3R [9]): 25.1 ± 2.0
Basal (V169A A3R): 55.3 ± 2.4 %100 μM forskolin
Emin (V169A A3R): 30.9 ± 1.7 %100 μM forskolin
Basal (M177A A3R): 70.2 ± 2.0 %100 μM forskolin
Emin (M177A A3R): 38.6 ± 2.7 %100 μM forskolin
Span (M177A A3R): 31.6 ± 2.0
Basal (I249A A3R): 62.6 ± 2.7 %100 μM forskolin
Emin (I249A A3R): 34.9 ± 2.2 %100 μM forskolin
Span (I249A A3R): 27.7 ± 1.3
Basal (L90A A3R): 73.2 ± 2.7 %100 μM forskolin
Emin (L90A A3R): 43.3 ± 3.2 %100 μM forskolin
Span (L90A A3R): 29.9 ± 1.8
Span (WT A3R [10]): 116.1 ± 3.5

CCNC(=O)[C@H]1O[C@@H](n2cnc3c(N)ncnc32)[C@H](O)[C@@H]1O [NECA]
cAMP accumulation Mean (A3R [6]; 10 μM forskolin + NECA IC80 (3.16 nM), no test compound): 60.32 ± 3.41 %10 μM forskolin response
Span (A1R [11]): 111.4 ±4.0
Emin (A1R [11]; lower plateau): -5.1 ±1.0 % forskolin response
Basal (A1R [11]; upper plateau): 107.5 ±3.4
Emin (A3R [12]): -5.02 ±2.4 % 10 µM forskolin response, relative to NECA

CC(C)[N+](C)(CCOC(=O)C1c2ccccc2Oc2ccccc21)C(C)C [propantheline, reference compound]
half-life at 1 μM (in vitro): 0.917 h
half-life at 1 μM (physchem): > 4 h
